Activity calls are given as the source filed them. How the calls were made is not given here.

Prostaglandin E2 receptor EP2 subtype (Homo sapiens), sequence (P43116 whole entry, looked up): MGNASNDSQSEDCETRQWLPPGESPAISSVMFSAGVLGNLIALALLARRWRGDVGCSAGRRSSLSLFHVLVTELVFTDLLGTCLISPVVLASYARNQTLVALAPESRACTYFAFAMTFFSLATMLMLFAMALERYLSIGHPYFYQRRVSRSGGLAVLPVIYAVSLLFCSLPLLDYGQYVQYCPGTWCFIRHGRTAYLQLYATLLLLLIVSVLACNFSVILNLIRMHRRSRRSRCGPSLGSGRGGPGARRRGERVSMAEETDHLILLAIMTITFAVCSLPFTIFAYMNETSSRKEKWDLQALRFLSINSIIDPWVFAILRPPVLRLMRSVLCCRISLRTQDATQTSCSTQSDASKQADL

One assay addresses Prostaglandin E2 receptor EP2 subtype (Homo sapiens) (UniProt P43116). Briefly: compounds shifting PGE2 potency at EP2 – cell-based, human EP2, PGE2 EC50 shift, dose response (AID 1421). The following applies: EP2-expressing cells, PGE2 EC50 shift by compound.
Consider `CCOC(=O)c1c(NC(=O)c2ccco2)sc2c1CCCCC2`, for which the outcome was active.

For `CC1CCCC(C)N1C(=O)c1ccccc1Nc1ccc(SC(F)F)cc1` (stereo unspecified), the outcome was active.

As to `O=C(Nc1ccccc1N1CCCCC1)c1cnccn1`, the result was active.

Turning to `CCc1ccc(NC(=S)N(Cc2ccccc2)Cc2ccccn2)cc1`, the result was active.

Regarding `CC(C)OC(=O)c1c(NC(=O)c2cccs2)sc2c1CCCC2`, the outcome was active.

In the case of `CC(C)OC(=O)CSc1nc(Cc2ccccc2)nc2ccccc12`, the result was active.

Turning to `Cc1ccc(NCc2ccccc2OCc2ccccc2F)cc1`, the result was active.

With `CCc1ccccc1NC1c2ccccc2C(=O)N1c1cc(C)ccn1` (stereo unspecified), the result was active.

Take `CC(C)(C)C1CCC(OC(=O)c2ccncc2)CC1` (stereo unspecified): the outcome was active.

For `Cc1ccc(-c2cc(C(F)(F)F)nn2-c2ccc(S(N)(=O)=O)cc2)cc1`, the outcome was active.

On to `COc1cc2c(cc1OC)-c1cc(N3CCCc4ccccc43)nc(=O)n1CC2`, for which the outcome was active.

The same assay, now with this note: EP2-expressing cells, PGE2 EC50 shift by compound; measured here: PGE2 EC50 at 6.7 uM compound.
Take `Cc1ccc(C)c(N=C2CCCN2Cc2ccccc2)c1C#N`: the PGE2 EC50 with compound turned out to be 0.61 nM.

For the molecule `C=CCc1cc(C=O)cc(OCC)c1OCc1ccc(Cl)cc1`, the PGE2 EC50 with compound came to 1.29 nM.

Take `COc1ccc(N=Cc2cc(Cc3ccccc3Cl)cc([N+](=O)[O-])c2O)cc1OC`: the PGE2 EC50 with compound was determined as 0.65 nM.

For `C=CCSc1nc2ccccc2n1S(=O)(=O)c1ccc(C)cc1`, the PGE2 EC50 with compound was determined as 0.95 nM.

As to `CCc1ccc(C2=Nn3c(nnc3-c3cccs3)SC2)cc1`, the PGE2 EC50 with compound was 1.43 nM.

On to `CCOC(=O)c1c(-c2ccc(C)cc2)csc1NC(=O)CCN1CC(C)OC(C)C1` (stereo unspecified), for which the PGE2 EC50 with compound amounted to 0.68 nM.

Take `Oc1ccc2ccccc2c1Cc1c(O)ccc2ccccc12`: the PGE2 EC50 with compound was 1.35 nM.

Regarding `CCCCCOC(=O)c1[nH]c2c(c1C)C(=O)C(C(=O)OC)C(C)C2` (stereo unspecified), the PGE2 EC50 with compound turned out to be 2.63 nM.

On to `c1ccc(Cc2nc3ccccc3n2Cc2ccccc2)cc1`, for which the PGE2 EC50 with compound was found to be 0.81 nM.

As to `CCCCC(CC)CN1CN(CC(CC)CCCC)CC(C)(N)C1` (stereo unspecified), the PGE2 EC50 with compound stood at 1.05 nM.

`CCOC(=O)c1c(NC(=O)c2ccco2)sc2c1CCCCC2`: the PGE2 EC50 with compound stood at 0.87 nM.

With `c1ccc(-c2ccccc2-c2nc(-c3cccnc3)no2)cc1`, the PGE2 EC50 with compound turned out to be 2.82 nM.

As to `Cc1ccc(OCC(=O)NNC(=O)C2CCN(c3ncccn3)CC2)cc1`, the PGE2 EC50 with compound amounted to 0.81 nM.

As for `CC(=O)OCC(=O)[C@@]12OC(C)(C)O[C@@H]1C[C@H]1[C@H]3CC=C4C[C@@H](O)CC[C@]4(C)[C@@H]3CC[C@@]12C`, the PGE2 EC50 with compound stood at 0.97 nM.

Turning to `CCOC(=O)c1cc2sc(C)cc2n1C(C)C(=O)OCC` (stereo unspecified), the PGE2 EC50 with compound amounted to 0.84 nM.

With `COc1ccc2cc3c(N)nn(C(=O)C4CCC(C(C)(C)C)CC4)c3nc2c1` (stereo unspecified), the PGE2 EC50 with compound was 1.08 nM.

`COc1ccc(-c2cc(-c3n[nH]c(=S)n3-c3cccc4ccccc34)[nH]n2)cc1`: the PGE2 EC50 with compound is 1.74 nM.

Regarding `COc1ccc(C(=O)c2ccccc2)c(O)c1`, the PGE2 EC50 with compound was found to be 0.92 nM.

On to `CC1CCCC(C)N1C(=O)c1ccccc1Nc1ccc(SC(F)F)cc1` (stereo unspecified), for which the PGE2 EC50 with compound is 1.05 nM.

For `CCc1c(C)nc2ccc(Br)cc2c1SCCC#N`, the PGE2 EC50 with compound was determined as 2.61 nM.

For `CCOC(=O)c1sc2nc(C)nc(N3CCN(c4ncccn4)CC3)c2c1C`, the PGE2 EC50 with compound stood at 0.62 nM.

On to `Cc1ccc(-c2cc3nn(-c4ccccc4)c(N)c3c(=O)o2)cc1`, for which the PGE2 EC50 with compound was 1.87 nM.

Consider `Cc1ccc(/C=C/c2nc3ccccc3c(=O)n2CCc2ccccc2)cc1`, for which the PGE2 EC50 with compound is 1.15 nM.

Take `CCCn1c(-c2cccs2)nc2c1c(=O)[nH]c(=O)n2Cc1ccccc1`: the PGE2 EC50 with compound came out at 2.78 nM.

Take `C=CCOc1ccccc1CNc1cccc(F)c1`: the PGE2 EC50 with compound was determined as 0.84 nM.

In the case of `O=C(Nc1ccccc1N1CCCCC1)c1cnccn1`, the PGE2 EC50 with compound was 0.93 nM.

Consider `C#CCn1c(S(=O)(=O)Cc2ccc(F)cc2)nc(-c2ccccc2)c1-c1ccccc1`, for which the PGE2 EC50 with compound was determined as 0.95 nM.

With `CCOC(=O)CNC(=O)c1ccc2c(c1)OCCO2`, the PGE2 EC50 with compound came to 2.56 nM.

In the case of `O=C(c1ccco1)N(Cc1cccc([N+](=O)[O-])c1)c1ccc(Br)cc1`, the PGE2 EC50 with compound amounted to 1.01 nM.

With `CCCCNc1nc(-c2ccccc2)c(C(=O)OCC)cc1C#N`, the PGE2 EC50 with compound came out at 0.88 nM.

For the molecule `Cc1cc(C)c2c(n1)sc1c(=O)n(Cc3ccccc3Cl)nnc12`, the PGE2 EC50 with compound was 0.92 nM.

As for `O=C(c1cn(Cc2ccccc2)c2ccccc12)C1CC1`, the PGE2 EC50 with compound came to 2.61 nM.

For the molecule `CCc1ccc(NC(=S)N(Cc2ccccc2)Cc2ccccn2)cc1`, the PGE2 EC50 with compound came out at 2.7 nM.

As for `O=c1cc(N2CCCCC2)c(-c2ccccc2)nn1Cc1ccc(F)cc1`, the PGE2 EC50 with compound was determined as 2.5 nM.

Consider `CC(C)OC(=O)c1c(NC(=O)c2cccs2)sc2c1CCCC2`, for which the PGE2 EC50 with compound amounted to 1.01 nM.

As to `CC(C)OC(=O)CSc1nc(Cc2ccccc2)nc2ccccc12`, the PGE2 EC50 with compound stood at 1.14 nM.

On to `Cc1ccc(NCc2ccccc2OCc2ccccc2F)cc1`, for which the PGE2 EC50 with compound was 0.86 nM.

As to `N#CCCSc1ncnc2c1oc1ccccc12`, the PGE2 EC50 with compound was found to be 1.52 nM.

Turning to `Cc1cc2c3c(c1)C1(SCC(=O)N1c1ccc(F)cc1)C(=O)N3C(C)(C)CC2C` (stereo unspecified), the PGE2 EC50 with compound stood at 2.59 nM.

Turning to `O=C(CSCc1c(Cl)cccc1Cl)Nc1ccccc1-c1ccccc1`, the PGE2 EC50 with compound came out at 1.36 nM.

For `O=S(=O)(c1ccccc1)N(Cc1nc(-c2ccccc2)no1)C1CCCCC1`, the PGE2 EC50 with compound is 1.26 nM.

Consider `O=S(Cc1cc(Sc2ccccc2)nc(-c2ccccc2)n1)c1ccccc1` (stereo unspecified), for which the PGE2 EC50 with compound was 1.15 nM.

For `CCOc1ccccc1NC(=O)c1ccccc1-c1nc(-c2ccccc2)no1`, the PGE2 EC50 with compound turned out to be 1.14 nM.

`CC(CC(=O)O)(CC(=O)O)C(=O)O`: the PGE2 EC50 with compound amounted to 0.87 nM.

In the case of `O=C(NCc1ccco1)C(c1cccs1)N(C(=O)Cc1cccs1)c1ccccc1` (stereo unspecified), the PGE2 EC50 with compound was 1.49 nM.

As to `O=C(Nc1ccccc1N1CCOCC1)c1ccc2ccccc2n1`, the PGE2 EC50 with compound worked out at 0.82 nM.

Regarding `CCc1ccccc1NC1c2ccccc2C(=O)N1c1cc(C)ccn1` (stereo unspecified), the PGE2 EC50 with compound is 2.49 nM.

Consider `CC(C)(C)C1CCC(OC(=O)c2ccncc2)CC1` (stereo unspecified), for which the PGE2 EC50 with compound amounted to 1.16 nM.

`CCOC(=O)Cc1csc(NC(NC(=O)CC)(C(F)(F)F)C(F)(F)F)n1`: the PGE2 EC50 with compound turned out to be 1.03 nM.

Regarding `C[C@]12CCC(=O)C=C1CCC1C2CC[C@@]2(C)C1CC[C@@H]2O` (stereo partly specified), the PGE2 EC50 with compound stood at 1.55 nM.

In the case of `CCn1ncc(Cl)c1C(=O)Nc1cc(Cl)ccc1Cl`, the PGE2 EC50 with compound came to 0.7 nM.

With `O=C(c1ccc(Cl)cc1)c1oc2ccccc2c1CS(=O)c1ccc(Cl)cc1` (stereo unspecified), the PGE2 EC50 with compound turned out to be 0.88 nM.

For `Cc1ccc(-c2cc(C(F)(F)F)nn2-c2ccc(S(N)(=O)=O)cc2)cc1`, the PGE2 EC50 with compound amounted to 1.28 nM.

As to `Cc1c(F)cccc1NC(=O)CCCCCC1NC(=O)NC1C` (stereo unspecified), the PGE2 EC50 with compound was 1.84 nM.

For the molecule `CCCCCCn1c(SCC(C)C)nc2c1c(=O)[nH]c(=O)n2C`, the PGE2 EC50 with compound came to 1.08 nM.

For `C1=C(c2ccccc2)Nc2ccccc2N=C1c1ccccc1`, the PGE2 EC50 with compound worked out at 2.46 nM.

With `COc1cc2c(cc1OC)-c1cc(N3CCCc4ccccc43)nc(=O)n1CC2`, the PGE2 EC50 with compound was determined as 1.98 nM.

On to `CCOC(=O)n1c(=O)n(Cc2ccc(Cl)c(Cl)c2)c2ccccc21`, for which the PGE2 EC50 with compound amounted to 0.9 nM.

Take `CCCC1=C(C(=O)OCC)C(c2cccs2)C(C#N)=C(N)O1` (stereo unspecified): the PGE2 EC50 with compound is 0.82 nM.

Consider `O=c1c(O)c(-c2ccccc2)oc2ccc3occc3c12`, for which the PGE2 EC50 with compound came out at 0.74 nM.

For the molecule `C=CCn1c(SCC(N)=O)nc(C)cc1=O`, the PGE2 EC50 with compound turned out to be 1.07 nM.

On to `COc1ccc(-c2nc3ccccc3n2Cc2ccccc2)cc1`, for which the PGE2 EC50 with compound was determined as 1.05 nM.

In the case of `CCSc1nnc(-c2ccc(Cl)cc2)c2ccccc12`, the PGE2 EC50 with compound came out at 0.76 nM.

Regarding `O=S(=O)(O)c1ccc2c(N=Nc3c(O)ccc4ccccc34)cccc2c1`, the PGE2 EC50 with compound was 1.28 nM.

Consider `C=CCOc1nc(-c2ccncc2)nc2ccccc12`, for which the PGE2 EC50 with compound is 2.48 nM.

The values are drawn from PubChem BioAssay AID1421 (Emory University Molecular Libraries Screening Center, 2008).
